The text below walks through data of BindingDB's records for doi:10.1016/j.bmc.2013.02.042 (The City University of New York, 2013).

The target of the assay is Sphingosine kinase 1 (Homo sapiens, UniProt Q9NYA1). As to the kind of experiment: Competitive inhibition of SK1 (unknown origin) in presence of ATP.
Sphingosine kinase 1, sequence (Q9NYA1 whole entry): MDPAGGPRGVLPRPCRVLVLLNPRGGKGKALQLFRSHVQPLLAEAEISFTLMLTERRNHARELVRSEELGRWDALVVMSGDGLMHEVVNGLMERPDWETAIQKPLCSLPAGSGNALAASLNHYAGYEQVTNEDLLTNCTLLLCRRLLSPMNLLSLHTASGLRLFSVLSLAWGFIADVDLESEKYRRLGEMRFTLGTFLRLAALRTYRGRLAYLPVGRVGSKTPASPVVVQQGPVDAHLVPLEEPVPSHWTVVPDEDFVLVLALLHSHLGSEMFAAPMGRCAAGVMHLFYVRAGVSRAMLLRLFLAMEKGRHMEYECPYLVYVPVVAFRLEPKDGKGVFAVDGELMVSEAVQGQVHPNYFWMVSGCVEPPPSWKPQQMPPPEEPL

For the compound `CCCCCCCCc1ccc(CC[C@](N)(/C=C/P(=O)(O)O)CO)cc1`, the Ki stood at 10 µM.
